# From patent US20090238810A1, “OPHTHALMIC COMPOSITION” (Menicon Co., Ltd., priority 2006, published 2009)
# What was measured:
# [1] = tested on: corneal epithelium of DE mice; experiment: Corneal fluorescein staining in experimental mouse model of dry eye (DE mice); assay type: in vivo, C57BL/6J mice
# Description: (§1) C57BL/6J mice aged 10 to 12 weeks were used for studies. All the studies were performed in accordance with the ARVO Statement for the Use of Animals in Ophthalmic and Vision Research.
# (§2) The mice were subcutaneously injected with 0.5 mg/0.2 ml of scopolamine hydrobromide four times a day for 5 days. Desiccating environmental stress was created by placing a mouse cage in a blower hood with continuous air flow blower (room temperature of […] and relative humidity of 60%±10%). Tear production of each mouse was evaluated before the treatment, and also evaluated on third and fifth days of the treatment.
# (§3) During the desiccation treatment, one of the eyes of each mouse was treated with eye drops including ApoA1 (Sigma-Aldrich, Japan) or with eye drops including ApoA1 and D-pantethine (Sigma-Aldrich, Japan), while PBS was administrated to the other eye of each mouse as a control. 5 μl of the respective eye drops was administered four times a day during the desiccation treatment for five days. All the ophthalmic compositions were formulated in PBS, and the osmolarity and the pH value of the compositions were adjusted to 290 to 300 mOsm/L and pH 7.4, respectively. […] To prepare one liter of 0.01 M PBS, there are needed the followings:
# Corneal fluorescein staining was evaluated 10 minutes after topical application of 1 μL of 1% sodium fluorescein (Sigma-Aldrich, Japan) to mouse eyes, which were treated as described above, and examined under a light microscope (Leica Microsystems Inc., Deerfield, USA) and photographed with a digital camera (CAMEDIA, Olympus Optical Co. Ltd., Japan) fitted to the microscope.
# In TABLES 2 and 3 below, X represents a ratio of an area which was subjected to a punctuate staining to a total area of a cornea.
# [2] = tested on: corneal epithelium of DE mice; experiment: Histopathologic study: corneal epithelial thickness in DE mice; assay type: in vivo, C57BL/6J mice
# Description: as §1, §2, §3
# Mice eyeballs were surgically excised, and fixed with neutral-buffered formalin (10%) and embedded in paraffin. Then, 5 μm thick histological sections were cut and stained with hematoxylin and eosin. […] Microphotometric measurement of the thickness was done by using OB-M, 1/100, micro, AX0001 (Olympus Optical Co. Ltd., Japan). The corneal epithelial thickness was measured to an accuracy of 10 μm.
# In this EXAMPLE, there were used 6 to 8 corneas of each of the following groups of mice: (a) normal mice, (b) DE mice, (c) DE mice treated with 0.04 w/v % of ApoA1, and (d) DE mice treated with PBS.
# [3] = DE mice, various concentrations
substance,measurement,setting,value
apolipoprotein A-1 [ApoA1],"most effective concentration of ApoA1, corneal staining scores","[1]; 0.01, 0.04 or 0.1 w/v % ApoA1 tested, DE mice (FIG. 10)",0.1 w/v %
same,conclusion of corneal fluorescein staining experiments: effect on dry eye syndrome,[1]; [3],significantly effective
same,"average corneal staining score, less than that of the PBS group","[1]; eye drops 0.04 w/v % ApoA1, 5 μl four times a day for five days, six DE mice, other eye PBS (FIG. 8)",about 25%
same,effect on corneal epithelium erosion due to desiccation (grading scores and quantitative measurement),"[1]; eye drops 0.04 w/v % ApoA1, DE mice",protective effects
same,"quantitative measurement of fluorescein stained area (NIH ImageJ), average score less than that of the PBS group","[1]; eye drops 0.04 w/v % ApoA1, DE mice, data not shown",20%
same,"most effective concentration of ApoA1, corneal epithelial thickness","[2]; 0.01, 0.04, 0.1 w/v % ApoA1 tested, DE mice (FIG. 15)",0.1 w/v %
same,thinning of the cell layers accompanied by detachment of the corneal epithelium,[2]; DE mice treated with 0.04 w/v % ApoA1 vs PBS (FIGS. 12 and 13),significantly greater in the PBS-treated eyes compared with the ApoA1-treated eyes
same,conclusion of corneal epithelial thickness experiments: restriction of thinning of corneal epithelium,[2]; [3],extremely effective
